{"source": "paper PMC13050480", "about": "“Preclinical Development of GT-14, a Novel Inhibitor of Gαi2 Protein: Comprehensive Evaluation of Physicochemical, Metabolic Characteristics and Tissue Distribution” (The AAPS journal, 2025)", "key": {"[1]": {"experiment": "Lipophilicity (logP), octanol-water shake-flask method", "type": "physicochemical", "details": "1-octanol/water, room temperature, triplicate, read-out: experimental logP (octanol-water)", "protocol": "The lipophilicity of GT-14 as indicated by the logP value (octanol–water partition coefficient) was determined by the traditional shake-flask method. Briefly, equal volumes (1 mL) of 1-octanol and water were added to an amber glass bottle and allowed to equilibrate on a shaker for 24 h. Following equilibration, approx. 1 mg of GT-14 (dissolved in Acetonitrile) was added to the two-phase system and allowed to shake continuously at room temperature for 72 h. The two phases were separated using a separating funnel and then centrifuged at 15,000 rpm for 10 min. The concentration of GT-14 in the octanol and water phases was determined by UPLC assay. The experiment was conducted in triplicate.\nThe logP was calculated by the equation: logP=logOctanolConc./AqueousConc."}, "[2]": {"experiment": "Solubility in different solvents, shake-flask method", "type": "physicochemical", "details": "room temperature", "protocol": "Solubility of GT-14 was assessed in different solvents, namely, water, ethanol, PEG 300, PEG 400, propylene glycol, DMSO, DMA, olive oil, soybean oil, Labrasol and Labrafac, by the shake-flask method. Briefly, an excess amount of GT-14 was added to each of the selected solvents in a scintillation vial. The vials were allowed to shake on a mechanical reciprocating shaker at room temperature for 24 h to achieve solvent saturation. The samples were then centrifuged at 15,000 rpm for 15 min at room temperature. The supernatant with dissolved GT-14 was separated from the pellet of the undissolved compound. It was then diluted and analyzed by UPLC to determine the concentration of GT-14. All experiments were conducted in triplicates."}, "[3]": {"experiment": "Cosolvent formulation: solubility, saline dilution and storage stability", "type": "physicochemical", "details": "for solubility: organic solvent or mixture", "protocol": "Co-solvent systems with various compositions and ratios of PEG 400, PEG 300, and propylene glycol were prepared to solubilize 5–10 mg/mL of GT-14. Each system was diluted with normal saline at different ratios of 1:1, 1:3, 1:7, and 1:15 (v/v) and observed for signs of precipitation for 4 h. The cosolvent system with maximum solubility and aqueous tolerance was tested for stability at different temperatures (−20°C, 4°C, and room temperature) in amber glass vials for up to a month. Samples were aliquoted at different time points and analyzed with UPLC."}, "[4]": {"experiment": "Tissue distribution and urinary excretion after IV dose in rats", "type": "in vivo, Sprague Dawley rats", "protocol": "Each tissue sample was weighed and homogenized in a clean scintillation vial with 0.9% saline (1:1, w/v) using the VWR 200 Homogenizer to make tissue homogenates. Homogenization was carried out on ice at a speed of 5000 rpm for all tissues except the prostate and kidney (10,000 rpm). A five-point calibration curve was prepared for the different tissues in the range of 0.39–25 ng/g. One hundred (100) μL of tissue homogenate samples were mixed with 10 μL of Griseofulvin (1.5 μg/mL, IS). The samples were vortexed for 30 seconds which was followed by protein precipitation with methanol (300 μL), to extract GT-14. The samples were again vortexed for 30 seconds, and then shaken on an automatic shaker for 5 minutes, followed by centrifugation at 14000 rpm for 20 minutes at 4°C. The supernatant was transferred to a sample vial, and a 5 μL aliquot was injected for LC-MS/MS analysis.\nHealthy male Sprague Dawley rats (250–300 g) were used to evaluate the plasma pharmacokinetics and tissue distribution of GT-14, with approved animal protocol from the Institutional Animal Care and Use Committee (IACUC) at Texas Southern University. The jugular vein of rats was cannulated in-house the day before intravenous dosing and blood sample collection. GT-14 was administered intravenously as a co-solvent formulation via the jugular vein cannula at a dose of 5 mg/kg. Serial blood samples (100 μL) were collected up to 24 h post-dose. The blood samples were centrifuged at 3000 rpm for 10 min at 4°C, and plasma was collected and stored at −80°C till analysis. Urine samples were also collected at intervals of 0–7 and 7–24 hrs. using metabolic cages and stored at −20°C until analysis. At 24 hr, animals were sacrificed and organs such as prostate, liver, lungs, spleen, brain, kidneys, and heart were collected, following whole body perfusion (transcardiac perfusion) with normal saline to reduce residual blood in tissues. Plasma and tissue homogenate samples were processed (described in section “Analytical Assay”) and analyzed by LC-MS/MS. Tissue concentrations were calculated using the following formula: Tissueconcentrationng/g=CHTS×VHTS/WTS where, CHTS is the concentration (ng/mL) of GT-14 in the homogenized tissue sample; VHTS is the volume of homogenized tissue sample (mL) and WTS is the weight of tissue sample (g)."}, "[5]": {"experiment": "Stability of GT-14 in rat urine", "type": "in vitro ADME", "details": "for Stability at -20 °C (48 hrs) in rat urine: n=5, in %", "protocol": "Blank rat urine was spiked with GT-14 at conc. of 25, 50, 500 and 1000 ng/mL. The samples were kept at -20°C for 48 hours (n=5, Mean ± SD)"}, "[6]": {"details": "rat, IV 5 mg/kg, 24 hr post dose, 5 mg/kg"}}, "note": "Values joined by “and” are separate entries in the source; they are usually repeats but may differ in a detail not shown here. Equal values may be shown once. “Also recorded” adds a separate entry of the source. Read-outs that look alike come from different tables or passages of the source.", "data": [{"smiles": "C/C(=N\\c1ccc(O)cc1)c1cc2ccccc2n1C", "note": "[GT-14, (E)-4-((1-(1-methyl-1H-indol-2-yl)ethylidene)amino)phenol]", "values": [{"measurement": "logP at 72 h", "setting": "[1]", "value": 2.38}, {"measurement": "solubility at 24 h", "setting": "[2]; DMA, thermodynamic from solid, n=3, read-out: Solubility in DMA", "value": 107000, "unit": "µg/mL"}, {"measurement": "solubility at 24 h", "setting": "[2]; DMSO, thermodynamic from solid, n=3, read-out: Solubility in DMSO", "value": 80000, "unit": "µg/mL"}, {"measurement": "solubility at 24 h", "setting": "[2]; Labrafac CC (Labrafac Lipophile WL1349), thermodynamic from solid, n=3, read-out: Solubility in Labrafac CC (Labrafac Lipophile WL1349)", "value": 8600, "unit": "µg/mL"}, {"measurement": "solubility at 24 h", "setting": "[2]; Labrasol, thermodynamic from solid, n=3, read-out: Solubility in Labrasol", "value": 8100, "unit": "µg/mL"}, {"measurement": "solubility at 24 h", "setting": "[2]; PEG 300, thermodynamic from solid, n=3, read-out: Solubility in PEG 300", "value": 17200, "unit": "µg/mL"}, {"measurement": "solubility at 24 h", "setting": "[2]; PEG 400, thermodynamic from solid, n=3, read-out: Solubility in PEG 400", "value": 11300, "unit": "µg/mL"}, {"measurement": "solubility at 24 h", "setting": "[2]; olive oil, thermodynamic from solid, n=3, read-out: Solubility in olive oil", "value": 11400, "unit": "µg/mL"}, {"measurement": "solubility at 24 h", "setting": "[2]; propylene glycol, thermodynamic from solid, n=3, read-out: Solubility in propylene glycol", "value": 5300, "unit": "µg/mL"}, {"measurement": "Solubility in DMA", "setting": "[2]; 24 h, n=3", "value": "freely soluble"}, {"measurement": "Solubility in DMSO", "setting": "[2]; 24 h, n=3", "value": "freely soluble"}, {"measurement": "Solubility in Labrafac CC (Labrafac Lipophile WL1349)", "setting": "[2]; 24 h, n=3", "value": "slightly soluble"}, {"measurement": "Solubility in PEG 300", "setting": "[2]; 24 h, n=3", "value": "sparingly soluble"}, {"measurement": "Solubility in PEG 400", "setting": "[2]; 24 h, n=3", "value": "sparingly soluble"}, {"measurement": "Solubility in olive oil", "setting": "[2]; 24 h, n=3", "value": "sparingly soluble"}, {"measurement": "Solubility in propylene glycol", "setting": "[2]; 24 h, n=3", "value": "slightly soluble"}, {"measurement": "Solubility in soybean oil", "setting": "[2]; 24 h, n=3", "value": "slightly soluble"}, {"measurement": "Solubility in water", "setting": "[2]; 24 h, n=3", "value": "very slightly soluble"}, {"measurement": "solubility at 24 h", "setting": "[2]; soybean oil, thermodynamic from solid, n=3, read-out: Solubility in soybean oil", "value": 7800, "unit": "µg/mL"}, {"measurement": "solubility at 24 h", "setting": "[2]; water, n=3, read-out: Solubility in water", "value": 110, "unit": "µg/mL"}, {"measurement": "Percentage Recovery, cosolvent formulation", "setting": "[3]; 4°C, Day 7", "value": "101.09 ± 2.19", "unit": "%"}, {"measurement": "Percentage Recovery, cosolvent formulation", "setting": "[3]; 4°C, Day 15", "value": "99.14 ± 0.32", "unit": "%"}, {"measurement": "Percentage Recovery, cosolvent formulation", "setting": "[3]; 4°C, Day 30", "value": "98.83 ± 0.15", "unit": "%"}, {"measurement": "solubility", "setting": "[3]; PEG300: PEG400: Propylene glycol (1:1:1), PEG300: PEG400: Propylene glycol, ratio 1:1:1, read-out: Solubility in cosolvent formulation", "value": 6000, "unit": "µg/mL"}, {"measurement": "solubility", "setting": "[3]; PEG300: PEG400: Propylene glycol (3:2:2 v/v), optimum, PEG300: PEG400: Propylene glycol, ratio 3:2:2 v/v, read-out: Solubility in cosolvent formulation (optimum)", "value": 8000, "unit": "µg/mL"}, {"measurement": "increase of solubility in optimum cosolvent formulation over water solubility", "setting": "[3]; PEG 300:PEG 400:propylene glycol 3:2:2", "value": "over 70 times"}, {"measurement": "solubility", "setting": "[3]; PEG 400: Propylene glycol: Tween 80 (2:1:0.25), PEG 400: Propylene glycol: Tween 80, ratio 2:1:0.25, read-out: Solubility in cosolvent formulation", "value": 5000, "unit": "µg/mL"}, {"measurement": "Percentage Recovery, cosolvent formulation", "setting": "[3]; Room Temperature, Day 7", "value": "93.4% and 93.37± 0.76%"}, {"measurement": "Percentage Recovery, cosolvent formulation", "setting": "[3]; Room Temperature, Day 15", "value": "91.18 ± 0.38", "unit": "%"}, {"measurement": "Percentage Recovery, cosolvent formulation", "setting": "[3]; Room Temperature, Day 30", "value": "90.88 ± 0.07", "unit": "%"}, {"measurement": "precipitation on dilution of cosolvent formulation with saline", "setting": "[3]; optimum cosolvent formulation, several ratios of saline", "value": "No precipitation was observed till a 10X dilution with saline"}, {"measurement": "appearance of cosolvent formulation after one month", "setting": "[3]; room temperature", "value": "grew a darker color"}, {"measurement": "appearance of cosolvent formulation after one month", "setting": "[3]; −20°C and 4°C", "value": "remained light yellow, without any visible particles"}, {"measurement": "Percentage Recovery, cosolvent formulation", "setting": "[3]; −20°C, Day 7", "value": "100.32 ± 0.08", "unit": "%"}, {"measurement": "Percentage Recovery, cosolvent formulation", "setting": "[3]; −20°C, Day 15", "value": "101.22 ± 0.27", "unit": "%"}, {"measurement": "Percentage Recovery, cosolvent formulation", "setting": "[3]; −20°C, Day 30", "value": "101.26 ± 0.39", "unit": "%"}, {"measurement": "drug cleared from plasma", "setting": "[4]; 24-h time point post single dose injection", "value": "~99", "unit": "%"}, {"measurement": "concentration at 24 h", "setting": "[4]; male, Sprague Dawley, heart, rat, IV 5 mg/kg, 24 hr post dose, read-out: Tissue concentration, heart", "value": "0.13 ± 0.06", "unit": "ng/g"}, {"measurement": "concentration at 24 h", "setting": "[4]; male, Sprague Dawley, kidney, rat, IV 5 mg/kg, 24 hr post dose, read-out: Tissue concentration, kidney", "value": "0.52 ± 0.61", "unit": "ng/g"}, {"measurement": "concentration at 24 h", "setting": "[4]; male, Sprague Dawley, liver, rat, IV 5 mg/kg, 24 hr post dose, read-out: Tissue concentration, liver", "value": "0.13 ± 0.01", "unit": "ng/g"}, {"measurement": "concentration at 24 h", "setting": "[4]; male, Sprague Dawley, lung, rat, IV 5 mg/kg, 24 hr post dose, read-out: Tissue concentration, lung", "value": "0.55 ± 0.15", "unit": "ng/g"}, {"measurement": "concentration at 24 h", "setting": "[4]; male, Sprague Dawley, plasma, rat, IV 5 mg/kg, 24 hr post dose, read-out: Plasma concentration", "value": "9.62 ± 2.82", "unit": "ng/mL"}, {"measurement": "concentration at 24 h", "setting": "[4]; male, Sprague Dawley, prostate, rat, IV 5 mg/kg, 24 hr post dose, read-out: Tissue concentration, prostate", "value": "2.19 ± 1.26", "unit": "ng/g"}, {"measurement": "Kp at 24 h", "setting": "[4]; male, Sprague Dawley, rat, intravenous, 5 mg/kg, all tissues, 24 hr post dose, read-out: tissue-to-plasma ratios", "value": "< 1"}, {"measurement": "GT-14 in brain", "setting": "[4]; [6]", "value": "not detected; also recorded: detected in all sampled tissues except the brain"}, {"measurement": "Tissue distribution (rank order, accumulation)", "setting": "[4]; [6]", "value": "highest concentration of GT-14 in the prostate, followed by the kidneys, lungs, heart, and liver; also recorded: High accumulation in prostate"}, {"measurement": "GT-14 in urine", "setting": "[4]; rat, IV 5 mg/kg, urine 0–7 and 7–24 hrs", "value": "not detected"}, {"measurement": "stability in rat urine (in words)", "setting": "[5]", "value": "stable"}, {"measurement": "Stability at -20 °C (48 hrs) in rat urine", "setting": "[5]; 25 ng/ml", "value": "109.28 ± 2.57"}, {"measurement": "Stability at -20 °C (48 hrs) in rat urine", "setting": "[5]; 50 ng/ml", "value": "110.25 ± 2.36"}, {"measurement": "Stability at -20 °C (48 hrs) in rat urine", "setting": "[5]; 500 ng/ml", "value": "105.71 ± 3.76"}, {"measurement": "Stability at -20 °C (48 hrs) in rat urine", "setting": "[5]; 1000 ng/ml", "value": "101.43 ± 2.58"}]}]}
